“Also recorded” adds a separate entry of the source. Read-outs that look alike come from different tables or passages of the source.
Legend:
HIV-1BaL [1] = experiment: HIV-1BaL replication in monocyte-derived macrophages (MDM), RT activity in supernatants; format: cell-based; conditions: for increase of HIV-1BaL replication in MDM by exogenous chemokine, mean over donors: IL-8: 17 donors, GRO-α: 5 donors
Procedure: (§1) HIV-1 Infection of MDM and PBL: For each experiment, multiple wells of MDM or PBL were infected with equal RT counts of HIV-1 (30–300×10^6 CPM of RT used per 10^5 cells). This amount of CPM of RT activity per cell corresponds to a multiplicity of infection (MOI) of between 0.01 and 0.1 as determined by titration on HOS-CD4-CCR5 and CEM-SS cell lines and quantitation of proviral DNA in PBMC 24 h after infection. MDM were cultured for 3 d prior to infection, washed after an overnight incubation with the virus, and cultured in DME+10% FBS. PHA-activated PBL were washed and incubated in RPMI+10% FBS+IL-2 (40 U/ml) overnight. CD8+cells were depleted with magnetic Dynabeads® M-450 CD8 according to the manufacturer's instructions (Dynal, Lake Success, N.Y.). CD8-depleted PBL were then incubated with HIV-1 for 4 h, washed and incubated in media +IL-2. A portion of the media (25%) was removed from the MDM and PBL supernatants and replaced twice weekly.

MDM = experiment: MTT assay of cellular viability, proliferation and activation in infected MDM; format: cell-based, human
Procedure: FIG. 3. […] MDM were treated as in FIGS. 1 and 2, and RT activity was measured every three to four days. MDM were also analyzed on day 13 by MTT assay (a measure of cellular viability, proliferation, and activation). Viability and activation was changed by less than 20% at all of the doses evaluated. For each treatment, viral replication was normalized against viability (RT activity/MTT assay) and then expressed relative to the control (no treatment). Data shown are the mean of three experiments;
In a preferred embodiment, the inhibitor is SB225002, a small molecular weight inhibitor that is an antagonist of IL-8 binding to CXCR2. In an alternate preferred embodiment, the inhibitor is antileukinate, a synthetic peptide inhibitor that interferes with both IL-8 and GRO-α binding to receptors. […] Infection of PBL with HIV-1BRU was inhibited by both the small molecule inhibitor, SB225002 (FIG. 29A), and the peptide, antileukinate (FIG. 29B). […] Cellular viability, proliferation, and activation were also analyzed in the infected cells by performing an MTT assay. […] Similarly, doses of antileukinate up to 10^−4 M in PBL and 10^−6 M in MDM reduced cellular viability by not more than 20%, and doses as low as 10^−8 M were effective at inhibiting HIV-1 replication. […]

PBL = format: cell-based, human
Excerpt: In a preferred embodiment, the inhibitor is SB225002, a small molecular weight inhibitor that is an antagonist of IL-8 binding to CXCR2. In an alternate preferred embodiment, the inhibitor is antileukinate, a synthetic peptide inhibitor that interferes with both IL-8 and GRO-α binding to receptors. […] Infection of PBL with HIV-1BRU was inhibited by both the small molecule inhibitor, SB225002 (FIG. 29A), and the peptide, antileukinate (FIG. 29B). […] Cellular viability, proliferation, and activation were also analyzed in the infected cells by performing an MTT assay. […] Similarly, doses of antileukinate up to 10^−4 M in PBL and 10^−6 M in MDM reduced cellular viability by not more than 20%, and doses as low as 10^−8 M were effective at inhibiting HIV-1 replication. […] The mean decreases in HIV-1BaL replication in MDM were 4.0±1.3 for 1000 nM SB225002 (p=0.019) and 2.6±0.6 for 10^−6 M antileukinate (p=0.002) relative to controls.

HIV-1BRU [2] = experiment: HIV-1BRU replication in PHA-activated PBL / T lymphocytes, RT activity in supernatants; format: cell-based; conditions: for increase of HIV-1BRU replication in PBL by exogenous chemokine, mean over donors: IL-8: 5 donors, CD8-depleted PBL, GRO-α: n=7, p=0.027
Procedure: as §1

GRO-α production by MDM = format: cell-based, human
HIV-1BRU [3] = experiment: HIV-1BRU (X4) infection of MDM, RT activity; format: cell-based; conditions: MDM from multiple donors
Procedure: as §1

HIV-1BaL [4] = experiment: HIV-1BaL replication in activated (CD8-depleted) PBL, RT activity; format: cell-based; conditions: IL-8: 11 donors; GRO-α: n=6
Procedure: as §1

HIV-1 = conditions: R5 and X4 isolates of HIV-1 and HIV-2
Procedure: Reverse Transcriptase (RT) Assay: HIV replication was determined by quantification of the RT activity present in the supernatants using a poly(A)-oligo(dT) template primer as previously described. […] RT activity was assayed using ^32P-labeled deoxythymidine triphosphate incorporated in DNA bound to DE81 paper (Whatman) and quantified using either the Series 400 PhosphorImager and ImageQuant® software (Molecular Dynamics, Sunnyvale, Calif.) or a Betascope radioisotope imaging system. RT activity is reported as phosphoimager counts except when labeled “counts” to signify beta counts.

IL-8 promoter = IL-8 promoter CAT reporter in transfected U937 cells; format: cell-based, human; conditions: Tat co-transfection alone, or TNF-α 1 ng/ml alone
Procedure: Transfection of the U937 Promonocyte Cell Line: U937 cells were transfected by the DEAE-dextran method with 1 μg of HIV-1 Tat (pCG-Tat1) or control vector (pCG) and 10 μg of a plasmid containing the chloramphenicol acetyl transferase (CAT) reporter gene downstream of either sequence which lacks eukaryotic promoter and enhancer sequences (pCAT-Basic, Promega, Madison, Wis.), nucleotides −254 to +19 of the IL-8 promoter (pCAT-IL-8), or the HIV-1-LTR. The cells were either left untreated or treated with TNF-α (1 ng/ml) at 24 hours after transfection and harvested 48 hours after transfection. CAT activity was quantified and normalized for the amount of protein. Values near 6000 represent complete acetylation of chloramphenicol (100%).

monocytes = experiment: Intracellular GRO staining of PBMC (flow cytometry); format: cell-based, human; conditions: staining after 6 hours
Procedure: Intracellular cytokine staining: PBMC were collected as described above and cultured in RPMI+10% FBS. The next day, PBMC were treated for 6 h with monensin (GolgiStop™, PharMingen) and incubated with virus, viral proteins, or TNF-α as indicated in the figure legend. PBMC were then collected and stained for the presence of intracellular GRO according to the manufacturer's instructions (PharMingen). Adherent cells were collected by incubation in PBS+10 mM EDTA for 30 min at 4° C. PBMC (both adherent and non-adherent cells) were then incubated in staining buffer (DPBS+1% FBS+0.09% sodium azide) with mouse IgG for 20 min at 4° C. to block non-specific binding of IgG to target cells. After two washes with staining buffer, PBMC were fixed and permeabilized with Cytofix/Cytoperm (PharMingen). PBMC were washed twice in Perm/Wash solution and then stained with either R-phycoerythrin (PE)-conjugated mouse anti-human GRO monoclonal antibody (GRO-PE) or PE-mouse IgG1, κ isotype control immunoglobulin (PharMingen). Analysis of cell staining was performed using an EPICS Elite cell sorter (Beckman-Coulter, Fullerton, Calif.). The monocyte and lymphocyte subpopulations were gated according to the pattern of forward scatter and side scatter.

CD14+ monocytes = experiment: Intracellular IL-8 staining of PBMC (flow cytometry); format: cell-based, human; conditions: staining after 6 hours; control monocytes 10%
Procedure: Intracellular Cytokine Staining: PBMC were collected as described above and cultured in RPMI+10% FBS. The next day, PBMC were treated for 6 h with monensin (GolgiStop™, PharMingen) and incubated with virus or TNF-α. PBMC were then collected and stained for the presence of intracellular IL-8 and various cell surface markers according to the manufacturer's instructions (PharMingen). Adherent cells were collected by incubation in PBS+10 mM EDTA for 30 min at 4° C. PBMC (both adherent and non-adherent cells) were incubated in staining buffer (DPBS+1% FBS+0.09% sodium azide) with mouse IgG for 20 min at 4° C. to block non-specific binding of IgG to target cells. PBMC were then washed with staining buffer and stained for cell surface antigens for 30 min at 4° C. using R-phycoerythrin (PE)-conjugated mouse anti-human CD4 (PE-CD4) or CD14 (PE-CD14) monoclonal antibodies or PE-mouse IgG1, κ isotype control immunoglobulin (PharMingen). After two washes with staining buffer, PBMC were fixed and permeabilized with Cytofix/Cytoperm (PharMingen). PBMC were washed twice in Perm/Wash solution and then stained with either fluorescein isothiocyanate (FITC)-conjugated mouse anti-human IL-8 monoclonal antibody or FITC-mouse IgG2a, κ immunoglobulin isotype standard (PharMingen). Analysis of cell staining was performed using an EPICS Elite cell sorter (Beckman-Coulter, Fullerton, Calif.). […]

IL-8 production by MDM = IL-8 production by MDM (ELISA of supernatants); conditions: added prior to exposure to HIV-1

O=C(Nc1ccc([N+](=O)[O-])cc1O)Nc1ccccc1Br [SB225002, N-(2-hydroxy-4-nitrophenyl)-N′-(2-bromophenyl)urea, reference compound] was tested, and the “mean decrease in HIV-1BaL replication in MDM relative to controls” value (HIV-1BaL [1]; 1000 nM, p=0.019) was 4.0±1.3, the “HIV replication in MDM, effect of inhibitor” value (HIV-1BaL [1]; RT activity normalized against MTT, relative to no treatment, mean of three experiments) was “significantly decrease HIV replication” and the “cellular viability (MTT), effect of the doses used” value (MDM) was “did not negatively affect cellular viability”. The “cellular viability (MTT), effect of the doses used” value (PBL) was “did not negatively affect cellular viability” and the “HIV-1BRU infection/replication in PBL, effect of inhibitor” value (HIV-1BRU [2]; treated every three days from one day before infection, RT activity days 3, 6, 9) was “decreases HIV-1 replication; also recorded: inhibited”.

O=c1c(-c2ccc(O)cc2)coc2cc(O)cc(O)c12 [genistein] was tested, and the “HIV-1BRU-induced GRO-α production by MDM, sensitivity to inhibitor” value (GRO-α production by MDM) was “sensitive”.

CO[C@H]1[C@@H](OC)C[C@H](C)[C@@H](OC)C2=CC(=O)C=C(NC(=O)/C(C)=C/C=C\[C@H](OC)[C@@H](OC(N)=O)/C(C)=C/[C@@H]1C)C2=O [herbimycin A] was tested, and the “HIV-1BRU-induced GRO-α production by MDM, sensitivity to inhibitor” value (GRO-α production by MDM) was “sensitive”.

With “GRO-α: recombinant C-X-C chemokine growth-regulated oncogene-alpha, ligand of CXCR2” the “HIV-1BaL replication in MDM, effect of exogenous chemokine” value (“HIV-1BaL replication in MDM, effect” for short) (HIV-1BaL [1]) was “augmented”, the “increase of HIV-1BaL replication in MDM by exogenous chemokine, mean over donors” value (HIV-1BaL [1]) was 14 fold and the “susceptibility of MDM to productive infection with X4 HIV (HIV-1BRU) with exogenous chemokine” value (HIV-1BRU [3]) was “does not confer susceptibility to productive infection with X4 HIV on MDM”. The “increase of HIV-1BaL replication in PBL by exogenous chemokine, mean over donors” value (HIV-1BaL [4]) was 5 fold, the “increase of HIV-1BRU replication in PBL by exogenous chemokine, mean over donors” value (HIV-1BRU [2]) was 2.4 fold and the “replication of other isolates tested, effect of exogenous chemokine” value (HIV-1) was “stimulated the replication of all isolates tested”.

For “IL-8: recombinant human IL-8, C-X-C chemokine”, the “HIV-1BaL replication in MDM, effect” value (HIV-1BaL [1]) was “augmented”, the “increase of HIV-1BaL replication in MDM by exogenous chemokine, mean over donors” value (HIV-1BaL [1]) was 6.2 fold and the “susceptibility of MDM to productive infection with X4 HIV (HIV-1BRU) with exogenous chemokine” value (HIV-1BRU [3]) was “does not confer susceptibility to productive infection with X4 HIV on MDM”. The “increase of HIV-1BaL replication in PBL by exogenous chemokine, mean over donors” value (HIV-1BaL [4]) was 4.8 fold, the “increase of HIV-1BRU replication in PBL by exogenous chemokine, mean over donors” value (HIV-1BRU [2]) was 1.7 fold and the “doses that stimulated viral replication” value (HIV-1BRU [2]; PHA-activated, CD8-depleted PBL (FIG. 8C)) was “exceeding 5 ng/ml”. For the same molecule, the “replication of other isolates tested, effect of exogenous chemokine” value (HIV-1) was “stimulated the replication of all other isolates tested”.

With IP-10: CXCR3 ligand, C-X-C chemokine the “HIV-1BaL replication in MDM, effect” value (HIV-1BaL [1]) was “stimulation” and the “HIV-1BRU replication in peripheral blood lymphocytes, effect of exogenous chemokine” value (from here on “HIV-1BRU replication … of exogenous chemokine”) (HIV-1BRU [2]) was “stimulation”.

For SDF-1α, the “GRO-α production by MDM, effect of treatment with the agent alone” value (GRO-α production by MDM) was “not produced”.

In the case of TNF-α, the “IL-8 promoter activity, effect of single stimulus” value (IL-8 promoter) is reported as “activated”, the “monocytes in which GRO was present” value (monocytes) is reported as “large percentage of monocytes” and the “CD14+ monocytes in which IL-8 was present” value (CD14+ monocytes) is reported as over 90%.

polymixin B was tested, and the “HIV-1BRU-induced GRO-α production by MDM, sensitivity to inhibitor” value (GRO-α production by MDM; supernatants 20 hours after exposure to virus) was “did not prevent the HIV-1BRU-induced increases in GRO-α” and the “HIV-induced IL-8 production by MDM, effect of antibody or agent” value (IL-8 production by MDM) was “did not prevent the HIV-induced increase in IL-8 production”.

B1: I-TAC: CXCR3 ligand, C-X-C chemokine (protein, UniProt O14625 22-94, looked up)
C-X-C motif chemokine 11: FPMFKRGRCLCIGPGVKAVKVADIEKASIMYPSNNCDKIEVIITLKENKGQRCLNPKSKQARLIIKKVERKNF
In the case of B1, the “HIV-1BRU replication … of exogenous chemokine” value (HIV-1BRU [2]) is reported as “stimulation”.

B2: RANTES: C-C chemokine which binds to CCR5 and CCR1 (protein, UniProt P13501 24-91, looked up)
C-C motif chemokine 5: SPYSSDTTPCCFAYIARPLPRAHIKEYFYTSGKCSNPAVVFVTRKNRQVCANPEKKWVREYINSLEMS
B2 was tested, and the “GRO-α production by MDM, effect of treatment with the agent alone” value (GRO-α production by MDM) was “nor RANTES, which binds to CCR5 and CCR1, was able to stimulate GRO-α production”.

B3: MIG: CXCR3 ligand, C-X-C chemokine (protein, UniProt Q07325 23-125, looked up)
C-X-C motif chemokine 9: TPVVRKGRCSCISTNQGTIHLQSLKDLKQFAPSPSCEKIEIIATLKNGVQTCLNPDSADVKELIKKWEKQVSQKKKQKNGKKHQKKKVLKVRKSQRSRQKKTT
B3 was tested, and the “HIV-1BRU replication … of exogenous chemokine” value (HIV-1BRU [2]) was “stimulation”.

Reference: patent publication US7052676B2, “Methods for inhibition of HIV replication using a small molecule inhibitor” (priority 2000, dated 2006)
